What is called inhibition is how much of the control response was suppressed. As a reminder, the IC50 is the concentration that gives 50% inhibition.

SMILES strings stand for the structures. Activity calls are given as the source filed them. The rule behind the calls is not given here.

In ChEMBL document CHEMBL3351480, “Discovery of novel non-carboxylic acid 5-amino-4-cyanopyrazole derivatives as potent and highly selective LPA1R antagonists” (Bioorg Med Chem Lett, 2014) one finds inhibition and IC50 data, which are given here for 13 molecules.

Format in all cases: functional, cell-based
Experiment [1] concerns the target Lysophosphatidic acid receptor 1 (Homo sapiens) (UniProt Q92633). The experiment in a line: Antagonist activity at human LPA1R expressed in Chem-1 cells assessed as inhibition of lysophosphatidic acid-induced calcium mobilization at 30 uM by FLIPR assay.
The target of experiment [2] is T1, Lysophosphatidic acid receptor 3 (Homo sapiens) (UniProt Q9UBY5).
T1 sequence (whole entry): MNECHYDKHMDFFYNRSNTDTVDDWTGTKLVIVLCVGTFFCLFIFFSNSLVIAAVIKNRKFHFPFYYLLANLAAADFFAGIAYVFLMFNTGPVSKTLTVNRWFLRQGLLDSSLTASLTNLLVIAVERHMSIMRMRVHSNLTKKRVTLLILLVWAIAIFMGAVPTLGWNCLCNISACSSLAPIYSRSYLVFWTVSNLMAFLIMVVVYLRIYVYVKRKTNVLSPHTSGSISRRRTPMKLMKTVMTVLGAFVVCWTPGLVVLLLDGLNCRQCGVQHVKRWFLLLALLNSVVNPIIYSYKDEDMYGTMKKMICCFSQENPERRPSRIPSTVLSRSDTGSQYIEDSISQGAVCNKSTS
The experiment in a line: Antagonist activity at human LPA3R expressed in Chem-1 cells assessed as inhibition of lysophosphatidic acid-induced calcium mobilization at 30 uM by FLIPR assay. On the technique in general: Calcium assays in cells follow changes in intracellular calcium, usually with a dye or a luminescent sensor.

The nature of experiment [3]: Antiproliferative activity against human NHLF cells assessed as inhibition of lysophosphatidic acid-induced proliferation by BrdU incorporation assay. In general terms: Dividing cells build labelled thymidine or BrdU into new DNA.
The target of experiment [4] is T1, Lysophosphatidic acid receptor 3 (Homo sapiens). The experiment in a line: Antagonist activity at human LPA3R expressed in Chem-1 cells assessed as inhibition of lysophosphatidic acid-induced calcium mobilization by FLIPR assay.

Sequence of Lysophosphatidic acid receptor 1 (Homo sapiens) (Q92633 whole entry): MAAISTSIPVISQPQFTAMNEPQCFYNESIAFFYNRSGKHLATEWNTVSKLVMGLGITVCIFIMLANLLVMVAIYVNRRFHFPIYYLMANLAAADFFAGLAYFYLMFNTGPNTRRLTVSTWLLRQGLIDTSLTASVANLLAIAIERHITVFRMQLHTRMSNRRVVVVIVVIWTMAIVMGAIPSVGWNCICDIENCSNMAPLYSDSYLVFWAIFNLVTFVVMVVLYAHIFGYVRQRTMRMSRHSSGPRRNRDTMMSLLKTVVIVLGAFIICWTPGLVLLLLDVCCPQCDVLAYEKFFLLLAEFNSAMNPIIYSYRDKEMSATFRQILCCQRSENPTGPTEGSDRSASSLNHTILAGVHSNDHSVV

Take `COc1cc(OCc2ccccc2)ccc1C(=O)/C(=N\C1CCCC1)n1ncc(C#N)c1N`: the inhibition in experiment [1] turned out to be 48%; in experiment [2], 23%.
Take `COc1ccc(C(=O)/C(=N\C2CCCCC2)n2ncc(C#N)c2N)c(OC)c1`: the IC50 in experiment [3] was determined as 3870 nM. Also, the values for the inhibition in experiment [1] and in experiment [2] were 85% and 30%, respectively.
In the same order, the values of `COc1ccc(C(=O)/C(=N\C(C)C)n2ncc(C#N)c2N)c(OC)c1` are 27 nM, 88% and 25%.
Regarding `COc1ccc(-c2[nH]c3c(C#N)cnn3c2NC2CCCC2)c(OC)c1`, the inhibition entry in experiment [4] was “inactive”.
Take `COc1cc(OC)c(C(=O)/C(=N\C2CCCC2)n2ncc(C#N)c2N)cc1OC`: the inhibition in experiment [1] was 79%; in experiment [2], 8%.
In the same order, the values of `COc1cc(F)ccc1C(=O)/C(=N\C1CCCC1)n1ncc(C#N)c1N` are 49% and 3%.
As to `CCc1ccc(C(=O)/C(=N\C2CCCC2)n2ncc(C#N)c2N)cc1`, the IC50 in experiment [3] came to 533 nM. In addition, the inhibition in experiment [1] came to 100%; in experiment [2] it was 14%.
For `COc1cc2c(cc1C(=O)/C(=N\C1CCCC1)n1ncc(C#N)c1N)CCC2`, the figures for the inhibition in experiment [1] and in experiment [2] were 78% and 19%, respectively.
In the same order, the values of `COc1cc(C(=O)/C(=N\C2CCCC2)n2ncc(C#N)c2N)cc(OC)c1OC` are 13% and 14%.
On to `COc1ccc(C(=O)/C(=N\C2CCCC2)n2ncc(C#N)c2N)c(OC)c1`, for which the concentration for half-maximal inhibition (IC50) in experiment [3] amounted to 29 nM. For the same molecule, the inhibition turned out to be 98% in experiment [1] and 23% in experiment [2].
The like results for `COc1ccc(C(=O)/C(=N\C2CCCC2)n2ncc(C#N)c2N)c(F)c1` were, in that order, 104 nM, 100% and 4%.
The like results for `COc1cc2ccccc2cc1C(=O)/C(=N\C1CCCC1)n1ncc(C#N)c1N` were, in that order, 184 nM, 78% and 2%.
For the molecule `N#Cc1cnn(/C(=N/C2CCCC2)C(=O)c2ccc(Br)cc2)c1N`, the inhibition in experiment [1] was determined as 96%; in experiment [2], 1%.
